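Tested at 5 concentrations; 48 h exposure; 96-well plates; endpoints linearly interpolated, else capped at highest concentration. Here, GI50 denotes the concentration required for 50% inhibition of growth. Definition used: TGI = concentration required for complete inhibition of growth.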
Experiments:
Experiment in all cases: growth of human tumour cells (NCI), 48 h
ACHN renal = system: ACHN renal
BT-549 breast = system: BT-549 breast
DU-145 prostate = system: DU-145 prostate
HOP-92 NSCLC = system: HOP-92 NSCLC
HS 578T breast = system: HS 578T breast
LOX IMVI melanoma = system: LOX IMVI melanoma
NCI-H460 lung = system: NCI-H460 lung
OVCAR-4 ovarian = system: OVCAR-4 ovarian
RXF 393 renal = system: RXF 393 renal
UACC-62 melanoma = system: UACC-62 melanoma

Structure (SMILES) | GI50 (ACHN renal) | TGI (ACHN renal) | GI50 (BT-549 breast) | TGI (BT-549 breast) | GI50 (DU-145 prostate) | TGI (DU-145 prostate) | GI50 (HOP-92 NSCLC) | TGI (HOP-92 NSCLC) | GI50 (HS 578T breast) | TGI (HS 578T breast) | GI50 (LOX IMVI melanoma) | TGI (LOX IMVI melanoma) | GI50 (NCI-H460 lung) | TGI (NCI-H460 lung) | GI50 (OVCAR-4 ovarian) | TGI (OVCAR-4 ovarian) | GI50 (RXF 393 renal) | TGI (RXF 393 renal) | GI50 (UACC-62 melanoma) | TGI (UACC-62 melanoma)
O=[N+]([O-])c1ccccc1N/N=C\c1c[nH]c2ccccc12 | 13.9 µM | > 67.3 µM | > 21.5 µM | > 100 µM | 27.6 µM | > 100 µM | 4.45 µM | 49.2 µM | 3.9 µM | 25.8 µM | 8.81 µM | > 47.6 µM | 10.3 µM | > 100 µM | 17.8 µM | > 100 µM | 10.7 µM | 57.8 µM | 17.1 µM | > 100 µM
O=C1c2ccccc2S(=O)(=O)N1CSC(=S)N1CCCCC1 | > 100 µM | > 100 µM | > 100 µM | > 100 µM | > 100 µM | > 100 µM | > 100 µM | > 100 µM | > 100 µM | > 100 µM | > 100 µM | > 100 µM | 5.5 µM | > 100 µM | > 100 µM | > 100 µM | > 100 µM | > 100 µM |  | > 57.3 µM
Clc1ccc2c(c1)N(c1ncnc3ccc(-c4cnc5[nH]ccc5c4)cc13)CC2 | 2.12 µM | 28.2 µM | 0.949 µM | 47.8 µM | 2.22 µM | 19.4 µM | 2.61 µM | 31.5 µM | 0.555 µM | 16.9 µM | 0.734 µM | 10.3 µM | 0.952 µM | 12.4 µM | 1.12 µM | 16.9 µM | 0.442 µM | 12.2 µM | 0.982 µM | 21.1 µM
NC1CCC(Nc2nc(NCc3ccc(-c4cccs4)nc3)c3ncn(C4CCCC4)c3n2)CC1 (stereo not drawn) | 0.276 µM | 1.01 µM | 0.131 µM | 0.626 µM | 0.0933 µM | 4.42 µM | 0.03 µM | 0.134 µM | 0.0269 µM | 2.28 µM | 0.296 µM | 3.48 µM | 0.0913 µM | 2.19 µM | 0.0326 µM | 1.06 µM | 0.0148 µM | 0.0378 µM | 0.087 µM | 0.365 µM
CC(=O)c1cc(C(=O)c2ccc3c(c2)Sc2ccccc2N3)c2c(C)cc(C)cn12 | 0.605 µM | > 40.1 µM | 0.368 µM | > 21.3 µM | 0.395 µM | > 47.3 µM | 1.24 µM | > 31 µM | 0.343 µM | > 36 µM | 0.73 µM | > 100 µM | 0.311 µM |  | 2.2 µM | > 100 µM | 0.162 µM | 0.699 µM | 0.254 µM | > 100 µM
COC(=O)[C@]12CC[C@@H](C)[C@H](C)[C@@H]1C1=CC[C@@H]3[C@@]4(C)C(C=O)=C[C@@](C)(COC(C)=O)C4=CC[C@@]3(C)[C@]1(C)CC2 | 3.12 µM | 12.4 µM | 6.9 µM | 25.9 µM | 5.24 µM | 19.4 µM | 2.63 µM | 16.3 µM | 5.07 µM | 30.3 µM | 3.3 µM | 12.7 µM | 3.98 µM | 15.2 µM | 4.06 µM | 18.3 µM | 3.55 µM | 14.1 µM | 4.11 µM | 18.1 µM
CN(C)c1ccc(N=C2C=CC(=[N+](C)C)C=C2)cc1 | 12.2 µM | 37.5 µM | 4.15 µM | 58.4 µM | 22.3 µM | > 100 µM | 5.17 µM | 74.4 µM | 3.28 µM | 29.1 µM | 3.86 µM | 22.1 µM | 5.36 µM | 43.7 µM | 7.52 µM | 21.8 µM | 23.4 µM | > 100 µM | 5.25 µM | 34.6 µM
Cn1cc(C2=C(c3cn(C)c4c([N+](=O)[O-])cccc34)C(=O)NC2=O)c2ccccc21 | > 25 µM | > 25 µM | > 25 µM | > 25 µM | > 25 µM | > 25 µM | > 25 µM | > 25 µM | > 25 µM | > 25 µM | > 25 µM | > 25 µM | > 25 µM | > 25 µM | > 25 µM | > 25 µM | > 25 µM | > 25 µM | > 25 µM | > 25 µM
CC1COc2c(N3CCN(C)CC3)c(F)cc3c(=O)c(C(=O)O)cn1c23 (stereo not drawn) | > 100 µM | > 100 µM | > 100 µM | > 100 µM | > 100 µM | > 100 µM | 0.478 µM | > 100 µM | > 100 µM | > 100 µM | > 100 µM | > 100 µM | > 100 µM | > 100 µM | > 100 µM | > 100 µM | > 100 µM | > 100 µM | > 100 µM | > 100 µM
Cc1ccccc1-n1ncc(C(=O)c2ccccc2)c1N | > 25 µM | > 25 µM | > 25 µM | > 25 µM | > 25 µM | > 25 µM | 4.2 µM | > 25 µM | > 25 µM | > 25 µM | > 25 µM | > 25 µM | > 25 µM | > 25 µM | > 25 µM | > 25 µM | > 25 µM | > 25 µM | > 25 µM | > 25 µM
C[C@H](Nc1ncnc2nc[nH]c12)c1cc2ccc(F)cc2nc1-c1ccccn1 | 47.9 µM | > 100 µM | 36.2 µM | > 100 µM | > 100 µM | > 100 µM | 3.43 µM | > 100 µM | 18.7 µM | > 100 µM | > 86.2 µM | > 100 µM | > 100 µM | > 100 µM | > 100 µM | > 100 µM | 4.26 µM | 59.2 µM | 9.29 µM | > 100 µM
CNC(=O)OCc1c2ccncc2c(C)c2c1[nH]c1ccccc12 |  | 0.522 µM |  | 1.63 µM |  | 6.18 µM |  | 16.5 µM |  | 3.12 µM |  | 0.584 µM |  | 1.81 µM |  | 1.38 µM |  | 0.17 µM |  | 0.869 µM
CC(C)(C)C(=O)OCOP(=O)(OCOC(=O)C(C)(C)C)C1CC(O)N(O)C1=O (stereo not drawn) | 6.04 µM | > 100 µM | 2.96 µM | 8.63 µM | 6.7 µM | > 100 µM | 1.84 µM | 8.99 µM | 2.59 µM | 7.85 µM | 3.35 µM | > 100 µM | 4.35 µM | > 100 µM | 17.5 µM | > 100 µM | 2.37 µM | 7.71 µM | 2.37 µM | 7.4 µM

Reference: PubChem BioAssay (NCI)
